In PMC4035770 (Pharmaceuticals, 2014):

Tests used:
[1] = target: T1, Serotonin transporter (SERT) (Homo sapiens, UniProt P31645)
[2] = Screening incubation in USP simulated gastric fluid (SGF); settings: incubation 37 °C, one hour, n = 2; <LOD = bupropion, its metabolites or other prodrugs not detected; LOD 0.1 ng/mL
Procedure: USP simulated gastric fluid preparation. Sodium chloride (0.02 g) and purified pepsin (0.032 g) that is derived from porcine stomach mucosa with an activity of 800 to 2,500 units per mg of protein were dissolved in 0.07 mL of concentrated hydrochloric acid and sufficient water to make 10 mL.
(§1) Pepsin is most efficient at cleaving peptide bonds between hydrophobic and aromatic amino acids such as phenylalanine, tryptophan and tyrosine. In order to simulate the pH and digestive enzymes of the stomach, USP simulated gastric fluid (SGF) was used. Conditions in the intestine were simulated using USP simulated intestinal fluid (SIF).
(§2) One hour metabolism or hydrolysis was considered to be sufficient time to generate detectable levels of metabolites, bearing in mind the likely exposure time in vivo. A blank media was used in each analysis to subtract a background from each LC-MS sample chromatogram. A t0 sample was also used to identify impurities related to each prodrug.
(§3) After one hour incubation of each compound in the selected media, the mixture was quenched with acetonitrile and the sample was centrifuged to remove precipitated proteins. The supernatant solution was analyzed immediately by LC-MS using data dependent acquisition analysis.
(§4) This transformation is commonly used to assess activity of oxidative enzyme CYP2B6 in human liver and intestinal microsomes. […] It was important to report if any of the other prodrugs were detected if for instance a possible multistep-prodrug was found.

[3] = Aqueous pH stability profile at 40 °C
[4] = Screening incubation in USP simulated intestinal fluid (SIF); settings: incubation 37 °C, one hour, n = 2; <LOD = bupropion, its metabolites or other prodrugs not detected; LOD 0.1 ng/mL
Procedure: USP simulated intestinal fluid preparation. Monobasic potassium phosphate (0.068 g) was dissolved in 2.5 mL of water and mixed. Sodium hydroxide (0.77 mL of 0.2 M) and water (5.0 mL) were added. Pancreatin (0.1 g) was added and the pH adjusted with either 0.2 M sodium hydroxide or 0.2 M hydrochloric acid to a pH of 6.8 ± 0.1. The solution was diluted to 10 mL with water.
as §1, §2, §3, §4

[5] = target: T2, Norepinephrine transporter (NET) (Homo sapiens, UniProt P23975); experiment: Pharmacological screen, norepinephrine transporter; format: binding
T2 construct: MDS Pharma Services Taiwan
T2 sequence (P23975 whole entry): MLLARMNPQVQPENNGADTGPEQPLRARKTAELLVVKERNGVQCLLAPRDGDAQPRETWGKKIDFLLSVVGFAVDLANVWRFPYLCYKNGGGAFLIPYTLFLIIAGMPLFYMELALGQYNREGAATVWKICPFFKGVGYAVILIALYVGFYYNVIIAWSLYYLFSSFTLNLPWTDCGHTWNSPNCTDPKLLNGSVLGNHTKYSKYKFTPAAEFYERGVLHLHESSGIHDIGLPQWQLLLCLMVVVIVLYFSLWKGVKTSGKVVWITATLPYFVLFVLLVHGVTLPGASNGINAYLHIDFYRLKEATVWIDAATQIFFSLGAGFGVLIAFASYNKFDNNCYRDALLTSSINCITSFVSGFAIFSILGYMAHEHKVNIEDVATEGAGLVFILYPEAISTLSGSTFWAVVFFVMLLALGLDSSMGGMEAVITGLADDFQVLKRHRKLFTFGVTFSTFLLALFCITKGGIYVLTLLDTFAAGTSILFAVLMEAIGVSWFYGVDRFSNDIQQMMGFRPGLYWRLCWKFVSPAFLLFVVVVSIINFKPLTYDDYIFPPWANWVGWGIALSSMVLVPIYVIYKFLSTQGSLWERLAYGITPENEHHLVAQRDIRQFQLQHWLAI

[6] = target: T3, Dopamine active transporter (DAT) (Homo sapiens, UniProt Q01959); experiment: Pharmacological screen, dopamine transporter; format: binding
T3 construct: MDS Pharma Services Taiwan
T3 sequence (Q01959 whole entry): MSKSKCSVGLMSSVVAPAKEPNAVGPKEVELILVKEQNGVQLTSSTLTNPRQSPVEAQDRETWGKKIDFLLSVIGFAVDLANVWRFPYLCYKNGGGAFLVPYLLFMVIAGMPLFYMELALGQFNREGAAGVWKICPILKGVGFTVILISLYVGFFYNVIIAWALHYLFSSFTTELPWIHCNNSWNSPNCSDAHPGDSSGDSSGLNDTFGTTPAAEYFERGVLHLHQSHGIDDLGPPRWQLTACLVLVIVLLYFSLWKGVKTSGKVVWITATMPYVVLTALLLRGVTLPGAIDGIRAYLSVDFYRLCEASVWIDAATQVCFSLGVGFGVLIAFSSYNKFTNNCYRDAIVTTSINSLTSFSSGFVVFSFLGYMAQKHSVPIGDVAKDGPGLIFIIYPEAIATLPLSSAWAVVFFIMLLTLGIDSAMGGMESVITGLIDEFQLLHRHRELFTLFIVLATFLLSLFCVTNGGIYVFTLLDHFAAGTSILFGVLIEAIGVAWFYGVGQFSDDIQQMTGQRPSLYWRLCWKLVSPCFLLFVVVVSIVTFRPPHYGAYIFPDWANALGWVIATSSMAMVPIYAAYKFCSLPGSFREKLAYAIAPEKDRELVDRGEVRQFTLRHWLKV

[7] = Microsomal metabolic stability screen, pooled human intestinal microsomes (HIM); format: in vitro ADME; settings: 10 µM prodrug, 0.02 mg/mL HIM, NADPH regenerating system, 37 °C, 60 min, n = 2; LOD 0.1 ng/mL
Procedure: Human intestinal microsome (HIM) stock solution preparation. HIM (0.2 mL) stock was added to PBS solution (9.8 mL). Final concentration; 0.2 mg/mL.
(§5) Microsomes, NADPH regenerating solutions A and B were thawed rapidly to 37 °C, then kept on wet ice until ready for use. A stock solution of the prodrug (5 mM) was prepared in ACN. To a 1.7 mL microcentrifuge tube in a 37 °C water bath was added the phosphate buffered saline solution (349 µL), the NADPH regenerating solution A (50 µL), the NADPH regenerating solution B (50 µL), and the prodrug solution (1 µL). After incubation for 5 min, microsome solution (50 µL) was added and the metabolism was initiated. The tube was vortex mixed. The final concentrations in this solution was 10 µM prodrug, 0.1 mg/mL HLM or 0.02 mg/mL HIM, 1.3 mM NADP^+, 0.4 U/mL glucose-6-phosphate dehydrogenase and 0.2% organic solvent. This solution was incubated for 60 min at 37 °C. The reaction was quenched by addition of acetonitrile (500 µL). The mixture was centrifuged at 10,000 × g for 10 min. The supernatant was analyzed by LC-MS analysis.
The intestinal cells contain cytochome P450 enzymes, flavin monoxygenases, esterases and UDP glucuroyl transferases. Condition III involved the use of pooled human intestinal microsomes (HIM) in order to simulate the potential metabolism that occurs during absorption and passage through the intestinal wall.

Nicotinic acetylcholine = experiment: Pharmacological screen, nicotinic acetylcholine receptor binding
Procedure: 2.4. Plasma LLOQ/Precision […]
of 10 ng/mL. […] ACN (200 µL) […]
was added and the solution was vortex mixed. The remaining mixture was centrifuged at 10,000 rpm […]
The final concentration was 1 ng/mL. […]
signal to noise ratio of three.
2.6. Brain LLOQ Accuracy/Precision
Aliquots (5 × 200 µL) were […]
transferred to 1.5 mL microcentrifuge tubes.
ACN (300 µL) was added and […]
the solution was vortex mixed. […] 200 µL
The solution was vortex mixed again and analysed by HPLC. Final concentrations were 12.5, 125 ng/mL.
2.7. Pharmacological Screening of N-Methyl Bupropion and Bupropion […]
nicotinic acetylcholine receptor [5,6] and SERT [7,8]. The specific nicotinic acetylcholine assays are […]
and nicotinic acetylcholine α7 [12].
3. Results Method Validation […]
diluent solutions separately.

[8] = target: T1, Serotonin transporter (SERT); experiment: biochemical
[9] = Michaelis-Menten kinetics of bupropion formation in pooled human liver microsomes; format: in vitro ADME; settings: pooled HLM 0.1 mg/mL, substrate 1–500 µM, 20 min, 37 °C, n = 6
Procedure: Microsomes, NADPH regenerating solutions A and B were thawed rapidly to 37 °C, and then kept on ice until ready for use. Substrate solutions were prepared (1–500 µM) where the maximum concentration of DMSO was 1%, and the concentration of microsomes, NADPH regenerating solution B and phosphate buffer was fixed. After incubation for 5 min, NADPH regenerating solution A was added and the metabolism was initiated. Final volume was 100 μL. The tube was inverted twice and vortex mixed. The final concentrations of prodrug in this solution was 1–500 µM, HLM (0.1 mg/mL) or HIM (0.02 mg/mL), NADP^+ (1.3 mM), glucose-6-phosphate dehydrogenase (0.4 U/mL) and 1.0% DMSO. This solution was incubated for 20 min at 37 °C. The reaction was quenched by addition of 100 µL of acetonitrile. The mixture was centrifuged at 10,000 × g for 10 min. The supernatant was analyzed by LC-MS analysis.

[10] = Screening incubation in pooled human plasma (PHP); format: in vitro ADME; settings: incubation 37 °C, one hour, n = 2; <LOD = bupropion, its metabolites or other prodrugs not detected; LOD 0.1 ng/mL
From the text: Pooled human plasma solution preparation. Citrated human plasma was pooled together from three separate donors.
Finally, pooled human plasma (PHP) was used to evaluate the prodrug stability/activation in blood since the plasma fraction contains much of the hydrolase activity in blood.

[11] = Microsomal metabolic stability screen, pooled human liver microsomes (HLM); format: in vitro ADME; settings: 10 µM prodrug, 0.1 mg/mL HLM, NADPH regenerating system, 37 °C, 60 min, n = 2; LOD 0.1 ng/mL
Procedure: Human liver microsome (HLM) stock solution preparation. HLM (0.5 mL) stock was added to PBS solution (9.5 mL). Final concentration; 1 mg/mL. The PBS solution was prepared by addition of one USP PBS tablet (Sigma-Aldrich catalogue number P4417) dissolved in 200 mL deionised water.
as §5
After passing through the intestinal membrane into the portal circulation the prodrug quickly enters the liver. This metabolic condition was simulated in the present work by using pooled human liver microsomes (HLM).

[12] = target: Muscarinic non -selective, central; experiment: Pharmacological screen, muscarinic receptor binding

T1 sequence (P31645 whole entry): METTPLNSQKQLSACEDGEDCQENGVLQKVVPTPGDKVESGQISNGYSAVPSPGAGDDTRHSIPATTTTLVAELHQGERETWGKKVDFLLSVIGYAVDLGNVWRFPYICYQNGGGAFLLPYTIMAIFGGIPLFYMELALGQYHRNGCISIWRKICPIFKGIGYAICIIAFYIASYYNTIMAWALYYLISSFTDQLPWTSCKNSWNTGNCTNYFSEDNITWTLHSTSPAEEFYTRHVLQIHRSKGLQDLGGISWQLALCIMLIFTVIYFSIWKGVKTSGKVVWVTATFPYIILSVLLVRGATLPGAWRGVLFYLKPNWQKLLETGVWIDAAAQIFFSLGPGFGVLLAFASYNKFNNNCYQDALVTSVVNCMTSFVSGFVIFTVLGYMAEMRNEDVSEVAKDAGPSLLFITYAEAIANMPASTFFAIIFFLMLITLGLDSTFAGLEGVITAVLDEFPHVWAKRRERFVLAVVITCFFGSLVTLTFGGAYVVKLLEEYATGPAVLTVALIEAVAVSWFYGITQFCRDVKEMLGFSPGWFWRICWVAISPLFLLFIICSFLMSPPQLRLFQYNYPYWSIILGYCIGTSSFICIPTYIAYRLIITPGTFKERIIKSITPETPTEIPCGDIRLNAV

With CC(C(=O)c1cccc(Cl)c1)N(C)C(C)(C)C (racemic) [Compound 4, Rac-N-methyl bupropion] the “effect on the serotonin transporter system, in words” value [1] was “little effect”, the “Primary product detected in media SGF” value [2] was “<LOD” and the “aqueous degradation rate above pH 5” value ([3]; above pH 5) was “degraded faster than bupropion”. For the same compound, the “aqueous degradation rate above pH 12” value ([3]; above pH 12) was “rate of degradation decreased quite dramatically”, the “aqueous stability / degradation rate below pH 5” value ([3]; below pH 5) was “stable” and the “Primary product detected in media SIF” value [4] was “<LOD”. For the same compound, the IC50 [5] was 57.9 µM, the Ki [5] was 54.4 µM and the “nH (Hill coefficient)” value ([5]; NET) was 0.764. For the same compound, the “activity as norepinephrine reuptake inhibitor, in words” value ([5]; compared with bupropion) was “less active than bupropion”, the IC50 [6] was 3.71 µM and the Ki [6] was 2.95 µM. The “nH (Hill coefficient)” value ([6]; DAT) was 0.924, the “activity as dopamine reuptake inhibitor, in words” value ([6]; compared with bupropion) was “less active than bupropion” and the “Primary product detected in media HIM” value [7] was “bupropion was detected”. For the same compound, the IC50 (Nicotinic acetylcholine; Nicotinic acetylcholine) was 71.6 µM, the Ki (Nicotinic acetylcholine; Nicotinic acetylcholine, Cheng and Prusoff) was 49.2 µM and the “activity at the nicotinic acetylcholine receptors, in words” value (Nicotinic acetylcholine; compared with bupropion) was “more active than bupropion”. The IC50 [8] was over 100 µM, the “Vmax of bupropion formation” value [9] was 900.4 ± 73.8 pmol/min/mg HLM and the “Vmax of bupropion formation” value ([9]; listed as N-methylbupropion) was 900.4 ± 74 pmol/min/mg HLM. For the same compound, the “Primary product detected in media PHP” value [10] was “<LOD”, the “Primary product detected in media HLM” value [11] was “bupropion was detected” and the IC50 [12] was 39.3 µM. For the same compound, the Ki ([12]; Cheng and Prusoff) was 12.3 µM.
